Source: patent US9856225B2, “Substituted phenazines as antimicrobial agents” (University of Florida Research Foundation, Incorporated, priority 2013, dated 2018)
Several values for one entry are separate records, joined by “and”; a condition that tells them apart may be missing. Equal values may be shown once. Entries after “also recorded” stand apart in the source; their conditions may differ. Read-outs that look alike come from different tables or passages of the source. Marks after values point to notes of the source that are not given here.

Tests used:
Format in all cases: cell-based
[1] = test system: Staphylococcus aureus (ATCC 25923); assay: MIC broth microdilution (CLSI), Luria Broth
Procedure: (§1) Antibiotic Susceptibility Tests (MIC Assay Protocol). The minimum inhibitory concentration (MIC) for each compound described herein was determined by the broth microdilution method as recommended by the Clinical and Laboratory Standards Institute (CLSI) (Clinical and Laboratory Standards Institute. 2009. Methods for dilution antimicrobial susceptibility tests for bacteria that grow aerobically; approved standard, eighth edition (M7-A8)). In a 96-well plate, eleven two-fold serial dilutions of each compound were made in a final volume of 100 μL Luria Broth (one column served as a blank; see the MIC assay described herein). Each well was inoculated with 10^5 bacterial cells at the initial time of incubation, prepared from a fresh log phase culture (OD600 of 0.5). […] The concentration range tested for each compound during this study was 0.10 to 100 μM. DMSO served as the vehicle and negative control in each microdilution MIC assay. DMSO was serially diluted at the same concentration as the compounds with a top concentration of 1% v/v. Bacterial strains used: Staphylococcus aureus (ATCC 25923), Staphylococcus epidermidis (ATCC 12228) and Pseudomonas aeruginosa (PAO1). Kanamycin was used as a positive control against Staphylococcus aureus and Staphylococcus epidermidis.

[2] = test system: Staphylococcus epidermidis (ATCC 12228); assay: MIC broth microdilution (CLSI), Luria Broth; details: ATCC12228, Table 1, ATCC 12228, read-out: Staphylococcus epidermidis MIC
Procedure: as §1

[3] = test system: Staphylococcus aureus (ATCC 25923) biofilm; assay: Biofilm inhibition, crystal violet staining; design: MIC/IC50 Biofilm: unit not given here; details: for Phenotype: planktonic growth vs biofilm formation; for IC50: Staphylococcus aureus; for MIC/IC50 Biofilm: ratio of MIC to IC50 of biofilm inhibition
Procedure: Biofilm Inhibition Protocol for S. aureus (ATCC 25923). A serial two-fold dilution of 2× bromophenazine small molecule concentration was made in 100 μL tryptic soy broth (TSB) medium with 0.5% glucose were delivered into 0.1% gelatin (Millipore) coated 96-well tissue culture plates. […] To each well, 100 μL of TSB with 0.5% glucose containing 2×10^6 CFU/mL Staphylococcus aureus cells, prepared from fresh culture (OD600 of 0.8), was added. The plates were incubated at 37° C. for 24 hours. The wells were gently rinsed by submerging the entire plates in a tub of cold, running tap water. The wells were then fixed with 200 μL methanol for 15 minutes. After the plates were air dried, the biofilms were stained with 100 μL of 1% crystal violet for 10 minutes. The plates were again rinsed with running water. After drying in air, quantitative assessment of biofilm formation was obtained by extracting the crystal violet associated with the remaining biofilm with 100 μL per well of the following bleaching solution (methanol:glacial acetic acid:water (v/v/v)=4:1:5). This bleaching solution dissolved the bound crystal violet and produced a violet-colored solution in each well. The intensity of coloration was determined by measuring the absorbance at 540 nm.

[4] = test system: Acinetobacter baumannii (ATCC 19606) biofilm; assay: Biofilm inhibition, Mueller-Hinton broth, crystal violet; details: for inhibition at 100 µM: Acinetobacter baumannii
Procedure: (§2) Biofilm Inhibition Protocol for A. baumannii (ATCC 19606): In a 96-well plate, ten two-fold serial dilutions of each compound tested were made from the highest concentration tested (100 μM) in a final volume of 100 μL in Mueller-Hinton broth (one column served as a blank). Each well was inoculated with ˜7×10^6 colony forming units per milliliter (corresponding to an OD600 of 0.01 prepared directly from an overnight culture). A lid was placed on the 96-well plate which was wrapped in suran wrap, placed in a humidifying chamber and incubated under static conditions at 37° C. for 24 hours. Following incubation, the media and planktonic bacteria were then removed from 96-well plates and the wells were then washed with water. The bacterial biofilms within the microtiter wells were stained with 200 μL of an aqueous 0.1% crystal violet solution that was allowed to stand for 10-20 minutes. The crystal violet stain was then removed, the wells were rinsed with water and dried. The crystal violet stain that remained on the inside of the wells (i.e., stained bacterial biofilm) on the inside of the wells was solubilized by the addition of 200 μL ethanol and absorbance was read at OD540 using a spectrophotometer. NOTE: The concentration range tested for each compound was 0.2-100 μM. Single data points for all compounds and DMSO controls were tested in two replicate rows in 96-well plates and corresponding absorbance readings were averaged for the quantification of planktonic growth and biofilm formation. Reported percent biofilm inhibition was determined by the comparison of compound treated wells (the average of the two replicate wells) versus vehicle control wells without compound following background subtraction (i.e., an empty, untreated well) and reported from 2 to 4 independent overnight cultures. DMSO was serially diluted at the same concentration as test compounds with a top concentration of 1% v/v.
(§3) The bromophenazines were also evaluated against the Gram-negative bacterium Acinetobacter baumannii in order to identify biofilm modulating small molecules against this emerging pathogen. Acinetobacter baumannii is notorious for its ability to persist as bacterial biofilms on hospital surfaces, giving rise to many multidrug-resistant nosocomial infections. Clinical isolates of A. baumannii have been identified that are resistant to every class of antibiotic clinically used. The bromophenazines were evaluated against Acinetobacter baumannii ATCC 19606 in biofilm inhibition assays. Bromophenazines were allowed to incubate in 96-well plates with Acinetobacter baumannii (˜7×10^6 CFUmL^−1 by adjusting an overnight culture to an OD600˜0.01) for 24 hours at 37° C. using Mueller-Hinton broth followed by spectrophometer readings of each plate to evaluate planktonic growth (OD600) and biofilm formation (OD540 after crystal violet stain of biofilms inside microtiter wells). […] This biofilm inhibition with activation of planktonic growth activity was dose-dependent with bromophenazine 17a (see FIG. 20).

[5] = test system: Acinetobacter baumannii (ATCC 19606); assay: Planktonic growth (OD600) in biofilm inhibition assay; details: for increase in planktonic growth: OD600; for inhibition of growth at 100 µM: Acinetobacter baumannii, ATCC19606, 24 h, read-out: % Growth Inhibition at 100 μM
Procedure: as §2, with “Each” for “Biofilm Inhibition Protocol for A. baumannii (ATCC 19606): In a 96-well plate, ten two-fold serial dilutions of each compound tested were made from the highest concentration tested (100 μM) in a final volume of 100 μL in Mueller-Hinton broth (one column served as a blank). Each”, “NOTE: The concentration range tested for each compound was 0.2-100 μM.” left out
as §3

[6] = Staphylococcus aureus, ATCC25923, Table 1, ATCC 25923, range tested 0.10 to 100 μM, read-out: Staphylococcus aureus MIC
[7] = Staphylococcus aureus, ATCC25923, Table 1, ATCC 25923, read-out: Staphylococcus aureus MIC
[8] = ATCC25923, S. aureus ATCC 25923, single replicate screen, read-out: Biofilm Inhibition IC50
[9] = ATCC19606, A. baumannii ATCC 19606, 100 μM, read-out: % Biofilm Inhibition at 100 μM
[10] = A. baumannii ATCC 19606, 100 μM, * = no growth inhibition at 200 μM
[11] = Staphylococcus aureus, ATCC25923, Table 2, S. aureus ATCC 25923, Luria Broth, read-out: MIC

IC50 [3, 8] [µM]	MIC/IC50 Biofilm ([3]; S. aureus ATCC 25923)	MIC [1, 11] [µM]	SMILES	Phenotype ([3]; S. aureus ATCC 25923)	inhibition at 100 µM [4, 9] [%]	inhibition of growth at 100 µM [5, 10] [%]	also measured
1.1	11.4		O=C(Oc1c(Br)cc(Br)c2nc3ccccc3nc12)c1cc(C(F)(F)F)cc(C(F)(F)F)c1 [Compound 17a]	antibacterial	60 ± 8	-15 ± 3	increase in planktonic growth ([5]; 100 μM): ~15%; planktonic growth inhibition at 200 μM [5]: did not inhibit planktonic growth; planktonic growth while biofilm formation is inhibited (in words) ([5]; Mueller-Hinton broth, FIG. 20): dose-dependent increases in planktonic growth
> 100		> 100	Cc1cc(C)c(C(=O)Oc2c(Br)cc(Br)c3nc4ccccc4nc23)c(C)c1 [Compound 19a]	inactive	44 ± 10	-14 ± 2	increase in planktonic growth ([5]; 100 μM): ~15%; planktonic growth inhibition at 200 μM [5]: did not inhibit planktonic growth
0.79	>127**	> 100	O=C(Oc1c(Br)cc(Br)c2nc3ccccc3nc12)c1cccs1 [Compound 24a]	antibacterial; also recorded: antibacterial**	32 ± 8	-10 ± 7	MIC ([1]; Table 2, S. aureus ATCC 25923, Luria Broth): >100** μM
14.8	>6.8	> 100	O=C(/C=C/c1ccccc1)Oc1c(Br)cc(Br)c2nc3ccccc3nc12 [Compound 9a]		52 ± 5	-18 ± 4	increase in planktonic growth ([5]; 100 μM): ~15%; planktonic growth inhibition at 200 μM [5]: did not inhibit planktonic growth
1.3	9.6		O=C(Oc1c(Br)cc(Br)c2nc3ccccc3nc12)c1ccc(C(F)(F)F)cc1 [Compound 16a]	antibacterial	29 ± 11	-3 ± 2	
> 100		> 100	O=C(Oc1c(Br)cc(Br)c2nc3ccccc3nc12)C1CCCCC1 [Compound 26, 2,4-Dibromophenazin-1-yl cyclohexanecarboxylate]	inactive	11 ± 1	-25 ± 5	Phenotype ([4]; A. baumannii ATCC 19606): inactive; MIC [1, 6]: > 100 µM; MIC [1, 7]: > 46.5 µg/mL

Continued, compound first:

SMILES	IC50 [3, 8] [µM]	MIC/IC50 Biofilm ([3]; S. aureus ATCC 25923)	MIC [1, 11] [µM]	Phenotype ([3]; S. aureus ATCC 25923)	inhibition at 100 µM [4, 9] [%]	inhibition of growth at 100 µM [5, 10] [%]	also measured
NC[C@H]1O[C@H](O[C@H]2[C@H](O)[C@@H](O[C@H]3O[C@H](CO)[C@@H](O)[C@H](N)[C@H]3O)[C@H](N)C[C@@H]2N)[C@H](O)[C@@H](O)[C@@H]1O [Kanamycin, reference compound]							MIC [1, 6]: 1.56 to 6.25 µM; MIC [1, 7]: 0.76 to 3.03 µg/mL; MIC [2]: 0.78 µM to 1.56 µM and 0.38 µg/mL to 0.76 µg/mL
O=C(Oc1c(Br)cc(Br)c2nc3ccccc3nc12)N(c1ccccc1)c1ccccc1 [Compound 26a]	> 100		> 100	inactive	40 ± 2	-22 ± 8	
O=C(Oc1c(Br)cc(Br)c2nc3ccccc3nc12)c1ccc2c(c1)OCO2 [Compound 22a]	> 100		> 100		29 ± 4	-14 ± 5	
CN(C)C(=O)Oc1c(Br)cc(Br)c2nc3ccccc3nc12 [Compound 25a]							IC50 ([3]; ATCC25923, read-out: Biofilm Inhibition IC50): > 100 µM; inhibition at 100 µM ([4]; ATCC19606, read-out: % Biofilm Inhibition at 100 μM): 15 ± 1%; inhibition of growth at 100 µM [5]: -3 ± 1%; MIC ([1]; Staphylococcus aureus, ATCC25923): > 100 µM
COc1c(Br)cc(Br)c2nc3ccccc3nc12 [Compound 27, 2,4-Dibromo-1-methoxyphenazine]							MIC [1, 6]: > 100 µM; MIC [1, 7]: > 36.9 µg/mL
O=C(Oc1c(Br)cc(Br)c2nc3ccccc3nc12)c1ccc(F)cc1 [Compound 24, 2,4-Dibromophenazin-1-yl 4-fluorobenzoate]	2.44	0.6	1.56	antibacterial	35 ± 4	-16 ± 6	MIC [1, 6]: 1.56 µM; MIC [1, 7]: 0.74 µg/mL
CS(=O)(=O)Oc1c(Br)cc(Br)c2nc3ccccc3nc12 [Compound 29a]	> 100		> 100		1 ± 2	3 ± 3	Phenotype ([4]; A. baumannii ATCC 19606): inactive
O=C(Oc1c(Br)cc(Br)c2nc3ccccc3nc12)c1ccc2ccccc2c1 [Compound 21a]	> 100		> 100	inactive	35 ± 9	-15 ± 6	increase in planktonic growth ([5]; 100 μM): ~15%; planktonic growth inhibition at 200 μM [5]: did not inhibit planktonic growth
COc1ccc(C(=O)Oc2c(Br)cc(Br)c3nc4ccccc4nc23)cc1 [Compound 20a]	0.95	>105	> 100		17 ± 5	-6 ± 4	IC50 ([3]; ATCC25923, S. aureus, three independent experiments, read-out: Biofilm inhibition IC50 (triplicate)): 10.3 µM; Phenotype ([4]; A. baumannii ATCC 19606): inactive
